Experimental data taken from patent US20260102359A1, “COMBINATION TREATMENT OF DERMAL AND TRANSDERMAL FIBROTIC DISEASES, DISORDERS AND ASSOCIATED PAIN AND INFLAMMATION” (ERESINA, LLC, priority 2022, published 2026).
Where a name gives a salt, the structure may show the parent alone. Where a SMILES comes first, the peptide text is derived from it. Bridges are numbered along the chain shown (N, C = ends). [ ]: non-standard residue; d: D form. hArg = N=C(N)NCCCC[C@H](N)C(=O)O; Mpa = O=C(O)CCS

Tested on: hDMFa myofibroblast cells

Row | Compound | Compound Myofibroblast Cytotoxicity Activity
1 | CCCOc1ccc2c(c1)CC[C@@H]1[C@@H]2CC[C@]2(C)[C@@H](OC)CC[C@@H]12 [Cmpd 800, Promestriene] | ++
2 | COc1cc(/C=C/C(=O)O)ccc1O [Cmpd 453, Ferulic Acid] | ++
3 | C[C@]1(O)C[C@@H](c2nc(-c3ccc4ccc(-c5ccccc5)nc4c3)c3c(N)nccn32)C1 [Cmpd 592, Linsitinib] | +++
4 | Cc1occc(=O)c1O [Cmpd 52] | ++
5 | O=C(O)c1cc(-c2ccccc2)nc2ccccc12 [Cmpd 265, Cinchophen] | ++
6 | C/C=C/c1cc(OC)c(OC)cc1OC [Cmpd 3, α-Asarone] | ++
7 | CCOc1nc2cccc(C(=O)O)c2n1Cc1ccc(-c2ccccc2-c2nnn[nH]2)cc1 [Cmpd 210, Candesartan] | ++
8 | CN(C)c1ccc2nc3ccc(=[N+](C)C)cc-3sc2c1 [Cmpd 663, Methylene Blue] | +++++
9 | N#C[C@@H]1C[C@@H]2C[C@@H]2N1C(=O)[C@@H](N)C12CC3CC(CC(O)(C3)C1)C2 [Cmpd 854, Saxagliptin hydrate] | ++
10 | CO[C@H]1C[C@@H]2CC[C@@H](C)[C@@](O)(O2)C(=O)C(=O)N2CCCC[C@H]2C(=O)O[C@H]([C@H](C)C[C@@H]2CC[C@@H](OC(=O)C(C)(CO)CO)[C@H](OC)C2)CC(=O)[C@H](C)/C=C(\C)[C@@H](O)[C@@H](OC)C(=O)[C@H](C)C[C@H](C)/C=C/C=C/C=C/1C [Cmpd 924, Temsirolimus (CCl-779, NSC 683864)] | +++++
11 | CO[C@]12C[C@@H](COC(=O)c3cncc(Br)c3)CN(C)[C@@H]1Cc1cn(C)c3cccc2c13 [Cmpd 707, Nicergoline] | ++
12 | CNCCCC12CCC(c3ccccc31)c1ccccc12 [Cmpd 635, Maprotiline HCl] | +++
13 | N[C@@H](CSCCCO)C(=O)O [Cmpd 473, Fudosteine] | ++++
14 | COS(=O)(=O)[O-].C[n+]1c2ccccc2nc2ccccc21 [Cmpd 775, Phenazine methosulfate] | +++++
15 | C[C@H](C(=O)O)c1ccc(-c2ccccc2)c(F)c1 [Cmpd 30, (S)-Flurbiprofen] | ++++
16 | CC(COc1ccccc1)NC(C)C(O)c1ccc(O)cc1 (stereo not shown) [Cmpd 542, Isoxsuprine (hydrochloride)] | ++
17 | COc1cc2ccc(=O)oc2cc1O [Cmpd 857, Scopoletin] | ++
18 | COc1ccc([C@@H]2CC(=O)c3c(O)cc(O)cc3O2)cc1O [Cmpd 503, Hesperitin] | ++
19 | CCCCCCCC/C=C\CCCCCCCC(=O)OCC(C[N+](C)(C)C)OC(=O)CCCCCCC/C=C\CCCCCCCC.[Cl-] (stereo not shown) [Cmpd 33, 1,2-Dioleoyl-3-trimethylammoniumpropane (chloride)] | +++
20 | O=C(c1ccccc1)c1ccccc1 [Cmpd 168, Benzophenone] | ++
21 | COc1cccc(OC)c1C(=O)N[C@@H]1C(=O)N2[C@@H]1SC(C)(C)[C@@H]2C(=O)O [Cmpd 656, Methicillin (sodium salt)] | ++
22 | O=C(O)CC(=O)O [Cmpd 631, Malonic acid] | ++++
23 | Cc1ncc(C[n+]2csc(CCO)c2C)c(N)n1.Cl.[Cl-] [Cmpd 939, Thiamine HCl (Vitamin B1)] | ++

Row | Compound | Compound Myofibroblast Cytotoxicity Activity
24 | CCCCCCCCCCCCN1CCCCCC1=O [Cmpd 565, Laurocapram] | +++++
25 | C=CCCCCCCCCC(=O)O [Cmpd 39, 10-Undecenoic acid] | ++
26 | C=C1/C(=C\C=C2/CCC[C@]3(C)[C@@H]([C@H](C)CCCC(C)C)CC[C@@H]23)C[C@@H](O)C[C@@H]1O [Cmpd 98, Alfacalcidol] | +++
27 | C[N+](C)(C)CCOP(=O)(O)OP(=O)([O-])OC[C@H]1O[C@@H](n2ccc(N)nc2=O)[C@H](O)[C@@H]1O [Cmpd 271, Citicoline (sodium salt)] | +++
28 | CN(C)CC/C=C1/c2ccccc2Sc2ccc(Cl)cc21 [Cmpd 254, Chlorprothixene] | +++
29 | CN(C)CCCN1c2ccccc2Sc2ccc(Cl)cc21 [Cmpd 253, Chlorpromazine HCl] | +++
30 | NC(CO)C(=O)NNCc1ccc(O)c(O)c1O (stereo not shown) [Cmpd 162, Benserazide HCl] | ++
31 | CC(=O)N[C@@H](CS)C(=O)O [Cmpd 695, N-Acetyl-L-cysteine] | +
32 | N=C(N)NCCCC[C@@H]1NC(=O)CCSSC[C@@H](C(N)=O)NC(=O)[C@@H]2CCCN2C(=O)[C@H](Cc2c[nH]c3ccccc23)NC(=O)[C@H](CC(=O)O)NC(=O)CNC1=O [Cmpd 424, Eptifibatide Acetate] ([Mpa][hArg]GDWPC-NH2; disulfide 1-7) | ++
33 | Oc1ccc(Cl)cc1Cc1cc(Cl)ccc1O [Cmpd 353, Dichlorophen] | +++++
34 | Nc1nc2ncc(CNc3ccc(C(=O)N[C@@H](CCC(=O)O)C(=O)O)cc3)nc2c(=O)[nH]1 [Cmpd 467, Folic acid] | ++
35 | CC(=O)[C@]1(O)Cc2c(O)c3c(c(O)c2[C@@H](O[C@H]2C[C@H](N)[C@H](O)[C@H](C)O2)C1)C(=O)c1ccccc1C3=O [Cmpd 515, Idarubicin HCl] | +++++
36 | O=NN(CCCl)C(=O)NCCCl [Cmpd 218, Carmustine] | ++
37 | Clc1ccc(Cn2c(CN3CCCC3)nc3ccccc32)cc1 [Cmpd 277, Clemizole hydrochloride] | ++
38 | O=CC[C@H](O)[C@H](O)CO [Cmpd 46, 2-Deoxy-D-ribose] | ++++
39 | CC(=O)O[C@@H]1CC[C@@]2(C)[C@@H](CC[C@]3(C)[C@@H]2C(=O)C=C2[C@@H]4[C@@H](C)[C@H](C)CC[C@]4(C)CC[C@]23C)[C@@]1(C)C(=O)O [Cmpd 51, 3-acetyl-11-keto-β-Boswellic Acid] | +++++
40 | beta-Alanine [Cmpd 174] | ++++
41 | N=C(N)NCCC[C@H](N)C(=O)O [Cmpd 561, L-Arginine] | ++
42 | N=c1nc(N2CCCCC2)cc(N)n1OS(=O)(=O)O [Cmpd 678, Minoxidil sulphate] | ++
43 | Cc1cccc(O)c1 [Cmpd 636, m-Cresol] | ++
44 | O=C([O-])c1ccccc1.[Na+] [Cmpd 870, Sodium benzoate] | ++++
45 | Cc1nc(Nc2ncc(C(=O)Nc3c(C)cccc3Cl)s2)cc(N2CCN(CCO)CC2)n1 [Cmpd 326, Dasatinib (BMS-354825)] | +++
46 | C[N+](C)(C)CCOC(N)=O.[Cl-] [Cmpd 214, Carbamoylcholine chloride] | ++

Row | Compound | Compound Myofibroblast Cytotoxicity Activity
47 | D-(−)-Isoascorbic Acid [Cmpd 306] | +
48 | CCCCCCCCCCCC(=O)O [Cmpd 564, Lauric Acid] | ++
49 | Zinc Pyrithione [Cmpd 1026] | +++++
50 | CN(C)c1ccc(C(=C2C=CC(=[N+](C)C)C=C2)c2ccc(N(C)C)cc2)cc1 [Cmpd 299, Crystal Violet] | +++
51 | CC(=O)Nc1ccccc1 [Cmpd 79, Acetanilide] | ++++
52 | C1=N/C2=N/c3ccc(OCCN4CCCC4)c(c3)COC/C=C/COCc3cccc(c3)C(=C1)N2 [Cmpd 751, Pacritinib (SB1518)] | +++
53 | CC/C(=C(/CC)c1ccc(O)cc1)c1ccc(O)cc1 [Cmpd 358, Diethylstilbestrol] | +++
54 | CCN(CC)CCOc1ccc(C(=C(Cl)c2ccccc2)c2ccccc2)cc1 [Cmpd 284, Clomiphene citrate] | +++
55 | CNC(=O)c1c(C)oc2cc(Oc3ncnc4cc(OC)c(OC)cc34)ccc12 [Cmpd 472, Fruquintinib(HMPL-013)] | ++++
56 | COC(=O)[C@]12CCC(C)(C)C[C@H]1[C@H]1C(=O)C=C3[C@@]4(C)C=C(C#N)C(=O)C(C)(C)[C@@H]4CC[C@@]3(C)[C@]1(C)CC2 [Cmpd 156, Bardoxolone methyl] | +++++
57 | CCCCC(=O)O[C@H]1CC[C@H]2[C@@H]3CCc4cc(O)ccc4[C@H]3CC[C@]12C [Cmpd 431, Estradiol valerate] | +++
58 | Cc1cc(C2CCCCC2)n(O)c(=O)c1.NCCO [Cmpd 259, Ciclopirox ethanolamine] | +++
59 | CS(C)(=O)=O [Cmpd 660, Methyl Sulfonyl Methane (MSM)] | +
60 | Cc1ccc(C(=O)N(CCCN)[C@@H](c2nc3cc(Cl)ccc3c(=O)n2Cc2ccccc2)C(C)C)cc1 [Cmpd 543, Ispinesib (SB-715992)] | +++++
61 | CC(=O)c1ccccc1 [Cmpd 82, Acetophenone] | ++
62 | CSCC[C@H](N)C(=O)O [Cmpd 657, Methionine] | ++
63 | O=C1c2c(O)ccc(O)c2C(=O)c2c(NCCNCCO)ccc(NCCNCCO)c21 [Cmpd 682, Mitoxantrone HCl] | +++++
64 | COc1cc(C(=O)NS(=O)(=O)c2ccccc2C)ccc1Cc1cn(C)c2ccc(NC(=O)OC3CCCC3)cc12 [Cmpd 1023, Zafirlukast] | +++++
65 | CSc1ccc2c(c1)N(CCC1CCCCN1C)c1ccccc1S2 (stereo not shown) [Cmpd 940, Thioridazine HCl] | ++++
66 | CCOC(=O)c1ccc(N)cc1 [Cmpd 166, Benzocaine] | ++
67 | Cc1nnc(SCC2=C(C(=O)O)N3C(=O)[C@@H](NC(=O)Cn4cnnn4)[C@H]3SC2)s1 [Cmpd 228, Cefazolin (sodium salt)] | +++
